# Results published in patent publication US11014911B2, “CDK2 inhibitors” (Pfizer Inc., priority 2019, dated 2021).
# Target: CDK2/Cyclin E1 full length (Homo sapiens (Human), UniProt P24941)
# Test: CDK2/Cyclin E1 full length mobility shift assay
# Type: biochemical
row,Structure (SMILES),Ki
1,"CC[C@H](C)NC(=O)O[C@@H]1CC[C@H](c2cc(NC(=O)Cc3ccn(C)n3)n[nH]2)C1 [Example 328, (1R,3S)-3-(3-{[(1-methyl-1H-pyrazol-3-yl)acetyl]amino}-1H-pyrazol-5-yl)cyclopentyl (2S)-butan-2-ylcarbamate]",1.77 nM
2,"COCCn1nccc1C(=O)Nc1cc([C@H]2CC[C@@H](OC(=O)N3CC[C@H]3C)C2)[nH]n1 [Example 593, (1R,3S)-3-[3-({[1-(2-methoxyethyl)-1H-pyrazol-5-yl]carbonyl}amino)-1H-pyrazol-5-yl]cyclopentyl (2R)-2-methylazetidine-1-carboxylate]",2.21 nM
3,"COc1cc(CC(=O)Nc2cc([C@@H]3CC[C@H](OC(N)=O)C3)[nH]n2)ccn1 [Example 257, (1S,3R)-3-(3-{[(2-methoxypyridin-4-yl)acetyl]amino}-1H-pyrazol-5-yl)cyclopentyl carbamate]",4.2 nM
4,"COc1cc(CC(=O)Nc2cc([C@@H]3CC[C@H](OC(=O)NC[C@@H]4CCCO4)C3)[nH]n2)ccn1 [Example 497, (1S,3R)-3-(3-{[(2-methoxypyridin-4-yl)acetyl]amino}-1H-pyrazol-5-yl)cyclopentyl [(2S)-tetrahydrofuran-2-ylmethyl]carbamate]",4.38 nM
5,"CCC(CO)CNC(=O)O[C@@H]1CC[C@H](c2cc(NC(=O)Cc3cc(F)cc(F)c3)n[nH]2)C1 (single isomer, unassigned) [Example 536]",2.07 nM
6,"CCCNC(=O)O[C@@H]1CC[C@H](c2cc(NC(=O)Cc3ccc(C)cc3S(C)(=O)=O)n[nH]2)C1 [Example 207, (1R,3S)-3-[3-({[4-methyl-2-(methylsulfonyl)phenyl]acetyl}amino)-1H-pyrazol-5-yl]cyclopentyl propylcarbamate]",0.66 nM
7,"Cc1cn(CC(=O)Nc2cc([C@H]3CC[C@@H](OC(=O)NC(C)(C)C)C3)[nH]n2)nn1 [Example 297, (1R,3S)-3-(3-{[(4-methyl-1H-1,2,3-triazol-1-yl)acetyl]amino}-1H-pyrazol-5-yl)cyclopentyl tert-butylcarbamate]",1.17 nM
8,"COc1cc(CC(=O)Nc2cc([C@@H]3CC[C@H](OC(=O)NC4CCOCC4)C3)[nH]n2)ccn1 [Example 503, (1S,3R)-3-(3-{[(2-methoxypyridin-4-yl)acetyl]amino}-1H-pyrazol-5-yl)cyclopentyl tetrahydro-2H-pyran-4-ylcarbamate]",2.13 nM
9,"COc1cnc(CC(=O)Nc2cc([C@H]3CC[C@@H](OC(=O)NC(C)C)C3)[nH]n2)cn1 [Example 277, (1R,3S)-3-(3-{[(5-methoxypyrazin-2-yl)acetyl]amino}-1H-pyrazol-5-yl)cyclopentyl propan-2-ylcarbamate]",0.98 nM
10,"Cc1nc(CC(=O)Nc2cc([C@H]3CC[C@@H](OC(=O)NC4(C)CC4)C3)[nH]n2)ccc1Cl [Example 442, (1R,3S)-3-(3-{[(5-chloro-6-methylpyridin-2-yl)acetyl]amino}-1H-pyrazol-5-yl)cyclopentyl (1-methylcyclopropyl)carbamate]",0.37 nM
11,"Cc1cnc(CC(=O)Nc2cc([C@H]3CC[C@@H](OC(=O)NC(C)C)C3)[nH]n2)s1 [Example 273, (1R,3S)-3-(3-{[(5-methyl-1,3-thiazol-2-yl)acetyl]amino}-1H-pyrazol-5-yl)cyclopentyl propan-2-ylcarbamate]",3.08 nM
12,"COC[C@H](C)NC(=O)O[C@@H]1CC[C@H](c2cc(NC(=O)Cc3cnc(C(F)(F)F)cn3)n[nH]2)C1 [Example 523, (1R,3S)-3-[3-({[5-(trifluoromethyl)pyrazin-2-yl]acetyl}amino)-1H-pyrazol-5-yl]cyclopentyl [(2S)-1-methoxypropan-2-yl]carbamate]",2.49 nM
13,"CC1(NC(=O)O[C@@H]2CC[C@H](c3cc(NC(=O)Cc4cc(C(F)(F)F)ccn4)n[nH]3)C2)CC1 [Example 444, (1R,3S)-3-[3-({[4-(trifluoromethyl)pyridin-2-yl]acetyl}amino)-1H-pyrazol-5-yl]cyclopentyl (1-methylcyclopropyl)carbamate]",1.41 nM
14,"Cc1coc(CC(=O)Nc2cc([C@H]3CC[C@@H](OC(=O)N4CCC[C@@H]4C)C3)[nH]n2)n1 [Example 636, (1R,3S)-3-(3-{[(4-methyl-1,3-oxazol-2-yl)acetyl]amino}-1H-pyrazol-5-yl)cyclopentyl (2S)-2-methylpyrrolidine-1-carboxylate]",0.83 nM
15,"Cc1ncc(CC(=O)Nc2cc([C@H]3CC[C@@H](OC(=O)N4C[C@@H](C#N)[C@@H]4C)C3)[nH]n2)s1 (single isomer, unassigned) [Example 159]",3.63 nM
16,"CCC(CO)CNC(=O)O[C@@H]1CC[C@H](c2cc(NC(=O)Cc3ccc(OC)cc3)n[nH]2)C1 (single isomer, unassigned) [Example 530]",2.03 nM
17,"CC(C)(C)NC(=O)O[C@@H]1CC[C@H](c2cc(NC(=O)Cc3ncccc3F)n[nH]2)C1 [Example 301, (1R,3S)-3-(3-{[(3-fluoropyridin-2-yl)acetyl]amino}-1H-pyrazol-5-yl)cyclopentyl tert-butylcarbamate]",0.55 nM
18,"O=C(Cc1nccs1)Nc1cc([C@H]2CC[C@@H](OC(=O)NCCC(F)(F)F)C2)[nH]n1 [Example 219, (1R,3S)-3-{3-[(1,3-thiazol-2-ylacetyl)amino]-1H-pyrazol-5-yl}cyclopentyl (3,3,3-trifluoropropyl)carbamate]",3.81 nM

row,Structure (SMILES),Ki
1,"CC(C)NC(=O)O[C@H]1CC[C@@H](c2cc(NC(=O)Cc3ccccn3)n[nH]2)C1 [Example 264, (1S,3R)-3-{3-[(pyridin-2-ylacetyl)amino]-1H-pyrazol-5-yl}cyclopentyl propan-2-ylcarbamate]",1.83 nM
2,"CC1(NC(=O)O[C@@H]2CC[C@H](c3cc(NC(=O)CC4COc5ccccc54)n[nH]3)C2)CCOC1 (stereo partly drawn) [Example 491, (1R,3S)-3-(3-{[(3ξ)-2,3-dihydro-1-benzofuran-3-ylacetyl]amino}-1H-pyrazol-5-yl)cyclopentyl [(3ξ)-3-methyltetrahydrofuran-3-yl]carbamate]",3.87 nM
3,"COc1cnc(CC(=O)Nc2cc([C@H]3CC[C@@H](OC(=O)NC(C)CC(F)(F)F)C3)[nH]n2)cn1 (single isomer, unassigned) [Example 67]",1.5 nM
4,"O=C(Cc1cc(F)cc(F)c1)Nc1cc([C@@H]2CC[C@H](OC(=O)NC[C@H]3C[C@H](O)C3)C2)[nH]n1 [Example 576, (1S,3R)-3-(3-{[(3,5-difluorophenyl)acetyl]amino}-1H-pyrazol-5-yl)cyclopentyl [(trans-3-hydroxycyclobutyl)methyl] carbamate]",1.99 nM
5,"CCCNC(=O)O[C@@H]1CC[C@H](c2cc(NC(=O)Cc3ccccc3S(=O)(=O)C(C)C)n[nH]2)C1 [Example 211, (1R,3S)-3-[3-({[2-(propan-2-ylsulfonyl)phenyl]acetyl}amino)-1H-pyrazol-5-yl]cyclopentyl propylcarbamate]",4.87 nM
6,"COCCn1nccc1C(=O)Nc1cc([C@H]2CC[C@@H](OC(=O)NC(C)CC(F)(F)F)C2)[nH]n1 (single isomer, unassigned) [Example 87]",1.32 nM
7,"CCCNC(=O)O[C@H]1CC[C@@H](c2cc(NC(=O)Cc3c[nH]cn3)n[nH]2)C1 [Example 165, (1S,3R)-3-{3-[(1H-imidazol-4-ylacetyl)amino]-1H-pyrazol-5-yl}cyclopentyl propylcarbamate]",2.28 nM
8,"COCc1cc(C(=O)Nc2cc([C@H]3CC[C@@H](OC(=O)N4CC[C@@H]4C)C3)[nH]n2)n(C)n1 [Example 595, (1R,3S)-3-[3-({[3-(methoxymethyl)-1-methyl-1H-pyrazol-5-yl]carbonyl}amino)-1H-pyrazol-5-yl]cyclopentyl (2S)-2-methylazetidine-1-carboxylate]",1.52 nM
9,"COc1cc(C(=O)Nc2cc([C@H]3CC[C@@H](OC(=O)N[C@H](C)CC(F)(F)F)C3)[nH]n2)n(C)n1 [Example 402, (1R,3S)-3-(3-{[(3-methoxy-1-methyl-1H-pyrazol-5-yl)carbonyl]amino}-1H-pyrazol-5-yl)cyclopentyl [(2R)-4,4,4-trifluorobutan-2-yl]carbamate]",1.54 nM
10,"Cn1ncc(CC(=O)Nc2cc([C@H]3CC[C@@H](OC(=O)NC4(C)CCOC4)C3)[nH]n2)c1C(F)(F)F (single isomer, unassigned) [Example 495]",1.79 nM
11,"Cc1ncc(CC(=O)Nc2cc([C@H]3CC[C@@H](OC(=O)NC(C)C(C)(F)F)C3)[nH]n2)s1 (single isomer, unassigned) [Example 390]",3.74 nM
12,"COc1cc(CC(=O)Nc2cc([C@H]3CC[C@@H](OC(=O)N4C[C@H](O)[C@H]4C)C3)[nH]n2)ccn1 [Example 613, (1R,3S)-3-(3-{[(2-methoxypyridin-4-yl)acetyl]amino}-1H-pyrazol-5-yl)cyclopentyl (2R,3S)-3-hydroxy-2-methylazetidine-1-carboxylate]",2.98 nM
13,"CC1(NC(=O)O[C@@H]2CC[C@H](c3cc(NC(=O)Cc4ccc(F)cn4)n[nH]3)C2)CC1 [Example 430, (1R,3S)-3-(3-{[(5-fluoropyridin-2-yl)acetyl]amino}-1H-pyrazol-5-yl)cyclopentyl (1-methylcyclopropyl)carbamate]",1.14 nM
14,"CC1(NC(=O)O[C@@H]2CC[C@H](c3cc(NC(=O)Cc4ccc(C(F)(F)F)cn4)n[nH]3)C2)CC1 [Example 445, (1R,3S)-3-[3-({[5-(trifluoromethyl)pyridin-2-yl]acetyl}amino)-1H-pyrazol-5-yl]cyclopentyl (1-methylcyclopropyl)carbamate]",0.6 nM
15,"O=C(Cc1ccc(C(F)(F)F)nc1)Nc1cc([C@@H]2CC[C@H](OC(=O)NC[C@H]3C[C@@H]3CO)C2)[nH]n1 [Example 580, (1S,3R)-3-[3-({[6-(trifluoromethyl)pyridin-3-yl]acetyl}amino)-1H-pyrazol-5-yl]cyclopentyl {[(1S,2S)-2-(hydroxymethyl)cyclopropyl]-methyl}carbamate]",3.38 nM
16,"CC[C@H](C)NC(=O)O[C@@H]1CC[C@H](c2cc(NC(=O)Cc3cccnc3OC)n[nH]2)C1 [Example 345, (1R,3S)-3-(3-{[(2-methoxypyridin-3-yl)acetyl]amino}-1H-pyrazol-5-yl)cyclopentyl (2S)-butan-2-ylcarbamate]",2.66 nM
17,"COc1cc(CC(=O)Nc2cc([C@H]3CC[C@@H](OC(=O)NC4CCOCC4)C3)[nH]n2)ccn1 [Example 504, (1R,3S)-3-(3-{[(2-methoxypyridin-4-yl)acetyl]amino}-1H-pyrazol-5-yl)cyclopentyl tetrahydro-2H-pyran-4-ylcarbamate]",3.64 nM
